{"source": "ChEMBL document CHEMBL5465560", "about": "“Selectivity Literature for EUbOPEN Chemogenomic Library” (2024)", "key": {"[1]": {"biological_target": "Cyclin-dependent kinase 5 (Homo sapiens, UniProt Q00535)", "sequence (Q00535 whole entry, looked up)": "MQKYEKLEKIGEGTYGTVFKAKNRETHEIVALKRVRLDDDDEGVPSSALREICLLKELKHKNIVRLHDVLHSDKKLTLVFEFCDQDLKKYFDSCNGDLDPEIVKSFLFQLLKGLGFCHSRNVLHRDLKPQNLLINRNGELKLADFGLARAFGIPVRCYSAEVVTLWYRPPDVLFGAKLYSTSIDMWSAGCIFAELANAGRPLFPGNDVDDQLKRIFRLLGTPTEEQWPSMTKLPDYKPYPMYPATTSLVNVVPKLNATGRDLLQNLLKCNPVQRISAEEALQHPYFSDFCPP", "assay": "Selectivity interaction (KinomeScan (DiscoverX)) EUB0000666a CDK5", "details": "at 10 µM"}, "[2]": {"biological_target": "Dual specificity protein kinase CLK2 (Homo sapiens, UniProt P49760)", "sequence (P49760 whole entry)": "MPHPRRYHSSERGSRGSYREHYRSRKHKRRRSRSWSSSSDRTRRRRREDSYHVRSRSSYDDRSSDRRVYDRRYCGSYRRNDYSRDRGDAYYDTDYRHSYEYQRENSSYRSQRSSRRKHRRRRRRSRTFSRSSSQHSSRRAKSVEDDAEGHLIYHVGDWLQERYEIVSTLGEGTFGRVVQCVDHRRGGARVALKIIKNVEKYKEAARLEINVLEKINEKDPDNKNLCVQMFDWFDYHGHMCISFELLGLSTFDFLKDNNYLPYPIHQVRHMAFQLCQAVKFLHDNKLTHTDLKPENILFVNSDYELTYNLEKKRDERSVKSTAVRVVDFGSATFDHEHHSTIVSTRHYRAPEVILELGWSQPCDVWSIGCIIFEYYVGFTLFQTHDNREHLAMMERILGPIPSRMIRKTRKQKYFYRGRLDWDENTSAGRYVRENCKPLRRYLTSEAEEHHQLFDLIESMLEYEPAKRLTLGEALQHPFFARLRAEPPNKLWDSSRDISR", "assay": "Selectivity interaction (Enzymatic assay) EUB0001550a CLK2"}, "[3]": {"biological_target": "Mitogen-activated protein kinase kinase kinase 9 (Homo sapiens) (UniProt P80192)", "sequence (P80192 whole entry, looked up)": "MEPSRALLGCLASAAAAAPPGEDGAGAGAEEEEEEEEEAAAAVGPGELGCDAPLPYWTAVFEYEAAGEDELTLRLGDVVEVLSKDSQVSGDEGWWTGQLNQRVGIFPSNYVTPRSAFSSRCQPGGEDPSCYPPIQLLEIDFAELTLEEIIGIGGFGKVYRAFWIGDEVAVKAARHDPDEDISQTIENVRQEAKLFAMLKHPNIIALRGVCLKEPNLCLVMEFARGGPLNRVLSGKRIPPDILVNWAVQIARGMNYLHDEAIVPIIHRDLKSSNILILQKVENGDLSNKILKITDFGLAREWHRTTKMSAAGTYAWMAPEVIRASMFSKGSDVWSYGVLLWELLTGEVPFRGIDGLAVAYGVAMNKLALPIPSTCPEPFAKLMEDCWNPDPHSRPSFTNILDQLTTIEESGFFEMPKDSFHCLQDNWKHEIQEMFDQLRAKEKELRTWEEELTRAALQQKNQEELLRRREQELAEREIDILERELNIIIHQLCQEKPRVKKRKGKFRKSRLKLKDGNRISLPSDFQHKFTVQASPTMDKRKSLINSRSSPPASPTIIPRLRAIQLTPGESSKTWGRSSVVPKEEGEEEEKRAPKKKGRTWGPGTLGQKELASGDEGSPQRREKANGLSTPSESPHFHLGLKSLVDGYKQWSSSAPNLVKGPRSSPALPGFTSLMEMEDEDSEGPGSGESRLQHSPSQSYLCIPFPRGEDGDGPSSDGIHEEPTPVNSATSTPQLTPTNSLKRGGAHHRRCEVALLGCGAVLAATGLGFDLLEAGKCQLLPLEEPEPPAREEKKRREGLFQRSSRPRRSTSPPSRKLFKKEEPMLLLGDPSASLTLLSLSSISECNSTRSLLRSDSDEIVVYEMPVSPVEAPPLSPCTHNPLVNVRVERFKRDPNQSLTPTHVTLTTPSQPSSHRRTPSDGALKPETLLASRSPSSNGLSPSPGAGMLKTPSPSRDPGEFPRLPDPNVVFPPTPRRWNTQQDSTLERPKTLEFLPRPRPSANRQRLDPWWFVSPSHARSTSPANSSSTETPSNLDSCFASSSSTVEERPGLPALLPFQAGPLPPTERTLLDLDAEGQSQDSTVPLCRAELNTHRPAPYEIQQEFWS", "assay": "Selectivity interaction (KinomeScan (DiscoverX)) EUB0000092b MAP3K9", "details": "at 10 µM"}, "[4]": {"biological_target": "Homeodomain-interacting protein kinase 3 (Homo sapiens, UniProt Q9H422)", "sequence (Q9H422 whole entry, looked up)": "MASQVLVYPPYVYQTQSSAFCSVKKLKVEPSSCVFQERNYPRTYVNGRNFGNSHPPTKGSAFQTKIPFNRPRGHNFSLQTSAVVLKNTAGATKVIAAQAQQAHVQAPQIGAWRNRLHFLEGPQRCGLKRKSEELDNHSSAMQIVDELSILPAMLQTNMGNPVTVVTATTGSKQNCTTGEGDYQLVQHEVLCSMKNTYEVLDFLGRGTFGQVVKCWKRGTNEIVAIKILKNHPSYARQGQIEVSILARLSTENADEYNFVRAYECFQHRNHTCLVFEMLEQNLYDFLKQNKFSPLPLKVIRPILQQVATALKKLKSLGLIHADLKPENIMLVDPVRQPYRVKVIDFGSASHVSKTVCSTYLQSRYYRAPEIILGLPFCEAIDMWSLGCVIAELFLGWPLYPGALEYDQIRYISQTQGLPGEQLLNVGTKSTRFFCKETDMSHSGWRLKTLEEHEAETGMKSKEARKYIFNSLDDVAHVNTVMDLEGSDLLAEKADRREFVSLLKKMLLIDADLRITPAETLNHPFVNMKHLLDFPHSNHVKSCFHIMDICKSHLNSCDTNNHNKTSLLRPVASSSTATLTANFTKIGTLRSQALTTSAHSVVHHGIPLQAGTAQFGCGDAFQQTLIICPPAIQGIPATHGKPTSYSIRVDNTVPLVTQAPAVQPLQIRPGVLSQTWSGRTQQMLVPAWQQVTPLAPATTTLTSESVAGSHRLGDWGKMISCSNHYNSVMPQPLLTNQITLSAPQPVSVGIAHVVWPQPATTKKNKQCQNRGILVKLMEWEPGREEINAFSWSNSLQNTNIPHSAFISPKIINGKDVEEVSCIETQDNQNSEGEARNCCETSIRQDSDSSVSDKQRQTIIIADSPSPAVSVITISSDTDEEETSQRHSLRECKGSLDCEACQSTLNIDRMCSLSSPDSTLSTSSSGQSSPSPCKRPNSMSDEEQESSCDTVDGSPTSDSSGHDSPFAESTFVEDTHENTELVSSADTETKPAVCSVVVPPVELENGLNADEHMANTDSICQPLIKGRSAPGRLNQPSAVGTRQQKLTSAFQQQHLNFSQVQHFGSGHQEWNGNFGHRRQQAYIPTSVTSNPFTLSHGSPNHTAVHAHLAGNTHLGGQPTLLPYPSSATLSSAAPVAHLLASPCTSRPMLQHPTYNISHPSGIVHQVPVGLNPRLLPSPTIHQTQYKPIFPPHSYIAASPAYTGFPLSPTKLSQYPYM", "assay": "Selectivity interaction (Ambit KINOMEscan and KiNATiv profiling in Jurkat cells) EUB0000090b HIPK3", "type": "cell-based", "details": "at 1 µM"}, "[5]": {"biological_target": "T1, Serine/threonine-protein kinase Nek10 (Homo sapiens) (UniProt Q6ZWH5)", "T1 sequence (whole entry)": "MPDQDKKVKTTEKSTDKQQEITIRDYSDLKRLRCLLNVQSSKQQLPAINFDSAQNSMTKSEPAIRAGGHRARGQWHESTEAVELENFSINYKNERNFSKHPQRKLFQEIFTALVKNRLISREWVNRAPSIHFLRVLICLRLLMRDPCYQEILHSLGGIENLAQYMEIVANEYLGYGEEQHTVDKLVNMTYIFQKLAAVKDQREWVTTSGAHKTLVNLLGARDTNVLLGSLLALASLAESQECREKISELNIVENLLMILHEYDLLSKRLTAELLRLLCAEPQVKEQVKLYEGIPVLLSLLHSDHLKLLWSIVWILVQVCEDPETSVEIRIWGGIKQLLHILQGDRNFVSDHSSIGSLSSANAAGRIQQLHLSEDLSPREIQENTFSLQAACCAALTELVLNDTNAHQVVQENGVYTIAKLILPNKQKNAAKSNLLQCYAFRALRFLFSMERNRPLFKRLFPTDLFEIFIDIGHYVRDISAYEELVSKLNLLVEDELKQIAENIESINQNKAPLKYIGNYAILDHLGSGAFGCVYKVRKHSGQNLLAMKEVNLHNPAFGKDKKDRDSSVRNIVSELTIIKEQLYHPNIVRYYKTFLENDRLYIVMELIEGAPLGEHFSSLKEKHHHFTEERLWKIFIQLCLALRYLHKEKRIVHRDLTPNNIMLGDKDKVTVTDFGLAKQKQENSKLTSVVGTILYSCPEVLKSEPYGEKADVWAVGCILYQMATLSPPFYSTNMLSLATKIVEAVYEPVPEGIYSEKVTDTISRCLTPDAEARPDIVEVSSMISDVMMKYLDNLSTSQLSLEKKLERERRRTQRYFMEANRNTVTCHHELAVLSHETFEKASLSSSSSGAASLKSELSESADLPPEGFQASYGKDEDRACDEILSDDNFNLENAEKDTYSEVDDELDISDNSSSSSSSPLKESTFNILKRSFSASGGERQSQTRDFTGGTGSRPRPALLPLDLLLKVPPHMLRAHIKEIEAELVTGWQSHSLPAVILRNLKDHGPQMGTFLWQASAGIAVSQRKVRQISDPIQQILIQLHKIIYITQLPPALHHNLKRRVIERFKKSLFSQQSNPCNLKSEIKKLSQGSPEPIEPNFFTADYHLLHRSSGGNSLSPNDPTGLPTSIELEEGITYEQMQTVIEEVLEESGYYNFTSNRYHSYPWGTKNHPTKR", "assay": "Selectivity interaction (Ambit KINOMEscan and KiNATiv profiling in Jurkat cells) EUB0000090b NEK10", "type": "cell-based", "details": "at 1 µM"}, "[6]": {"biological_target": "T2, Serine/threonine-protein kinase TAO2 (Homo sapiens) (UniProt Q9UL54)", "T2 sequence (whole entry)": "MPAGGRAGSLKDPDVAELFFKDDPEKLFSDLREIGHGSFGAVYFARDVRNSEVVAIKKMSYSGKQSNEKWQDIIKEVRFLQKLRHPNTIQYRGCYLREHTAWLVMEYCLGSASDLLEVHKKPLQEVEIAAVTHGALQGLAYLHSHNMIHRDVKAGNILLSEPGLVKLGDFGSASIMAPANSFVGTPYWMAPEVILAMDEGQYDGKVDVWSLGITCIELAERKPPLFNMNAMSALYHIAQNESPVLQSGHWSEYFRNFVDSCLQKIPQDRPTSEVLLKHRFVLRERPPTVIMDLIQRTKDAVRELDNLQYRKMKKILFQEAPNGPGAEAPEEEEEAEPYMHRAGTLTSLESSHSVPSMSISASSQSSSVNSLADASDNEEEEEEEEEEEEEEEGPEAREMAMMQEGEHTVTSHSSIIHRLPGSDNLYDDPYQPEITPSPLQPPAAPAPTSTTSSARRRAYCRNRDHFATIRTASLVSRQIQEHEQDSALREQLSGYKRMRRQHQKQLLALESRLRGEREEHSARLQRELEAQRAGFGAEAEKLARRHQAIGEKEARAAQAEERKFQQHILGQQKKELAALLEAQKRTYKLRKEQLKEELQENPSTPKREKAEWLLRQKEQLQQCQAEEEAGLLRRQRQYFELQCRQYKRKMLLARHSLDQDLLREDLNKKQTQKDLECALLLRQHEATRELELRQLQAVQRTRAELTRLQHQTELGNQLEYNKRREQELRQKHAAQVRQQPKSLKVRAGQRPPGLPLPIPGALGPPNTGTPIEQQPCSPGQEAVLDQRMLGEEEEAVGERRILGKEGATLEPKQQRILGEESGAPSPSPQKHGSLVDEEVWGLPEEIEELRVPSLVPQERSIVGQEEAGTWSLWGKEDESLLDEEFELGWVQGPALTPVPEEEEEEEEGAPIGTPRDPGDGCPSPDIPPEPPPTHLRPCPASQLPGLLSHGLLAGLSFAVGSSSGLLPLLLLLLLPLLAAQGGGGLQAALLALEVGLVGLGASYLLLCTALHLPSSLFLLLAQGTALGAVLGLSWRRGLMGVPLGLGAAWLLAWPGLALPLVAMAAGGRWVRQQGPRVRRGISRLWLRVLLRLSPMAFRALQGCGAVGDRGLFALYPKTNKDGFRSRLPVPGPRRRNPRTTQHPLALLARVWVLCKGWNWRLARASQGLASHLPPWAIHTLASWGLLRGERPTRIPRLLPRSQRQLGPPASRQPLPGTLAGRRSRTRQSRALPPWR", "assay": "Selectivity interaction (KinomeScan (DiscoverX)) EUB0000045b TAOK2"}, "[7]": {"biological_target": "Rho-associated protein kinase 1 (Homo sapiens) (UniProt Q13464)", "sequence (Q13464 2-1354 limits assumed)": "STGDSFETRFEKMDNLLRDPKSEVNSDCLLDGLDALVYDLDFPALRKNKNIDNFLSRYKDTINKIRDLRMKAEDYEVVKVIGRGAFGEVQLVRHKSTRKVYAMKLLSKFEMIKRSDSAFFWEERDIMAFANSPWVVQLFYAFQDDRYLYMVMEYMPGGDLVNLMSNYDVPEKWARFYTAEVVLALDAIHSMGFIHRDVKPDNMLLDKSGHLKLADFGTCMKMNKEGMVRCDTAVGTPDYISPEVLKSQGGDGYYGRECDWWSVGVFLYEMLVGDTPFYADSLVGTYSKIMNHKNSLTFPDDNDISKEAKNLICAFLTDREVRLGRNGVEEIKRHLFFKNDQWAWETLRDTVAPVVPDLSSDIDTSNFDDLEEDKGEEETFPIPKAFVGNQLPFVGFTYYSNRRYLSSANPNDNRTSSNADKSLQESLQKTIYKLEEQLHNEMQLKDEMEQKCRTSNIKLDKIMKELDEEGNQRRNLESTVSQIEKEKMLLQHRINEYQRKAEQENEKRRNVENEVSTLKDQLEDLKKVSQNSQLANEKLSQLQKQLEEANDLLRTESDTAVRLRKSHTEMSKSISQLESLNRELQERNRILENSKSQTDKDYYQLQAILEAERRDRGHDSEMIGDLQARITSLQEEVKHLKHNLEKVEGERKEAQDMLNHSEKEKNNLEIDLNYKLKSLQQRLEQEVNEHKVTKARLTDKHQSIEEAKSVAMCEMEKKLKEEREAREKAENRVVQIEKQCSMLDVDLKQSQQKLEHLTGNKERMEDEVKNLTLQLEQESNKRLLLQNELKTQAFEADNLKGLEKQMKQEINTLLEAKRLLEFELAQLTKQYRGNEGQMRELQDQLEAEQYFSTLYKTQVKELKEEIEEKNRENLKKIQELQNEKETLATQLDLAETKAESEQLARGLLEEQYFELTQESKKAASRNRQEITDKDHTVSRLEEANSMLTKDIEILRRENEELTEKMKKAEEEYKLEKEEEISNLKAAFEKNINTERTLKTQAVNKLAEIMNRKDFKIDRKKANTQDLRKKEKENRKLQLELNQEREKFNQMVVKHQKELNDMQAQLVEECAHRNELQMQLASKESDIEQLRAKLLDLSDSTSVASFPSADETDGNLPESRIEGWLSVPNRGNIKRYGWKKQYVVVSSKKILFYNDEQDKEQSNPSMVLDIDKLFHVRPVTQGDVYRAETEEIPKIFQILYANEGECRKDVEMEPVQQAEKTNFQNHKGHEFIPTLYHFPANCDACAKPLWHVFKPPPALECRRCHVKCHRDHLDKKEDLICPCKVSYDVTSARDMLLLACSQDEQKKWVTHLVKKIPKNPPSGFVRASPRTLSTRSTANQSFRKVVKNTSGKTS", "assay": "Selectivity interaction (KinomeScan (DiscoverX)) EUB0001619a ROCK1", "details": "at 1 µM"}, "[8]": {"biological_target": "5-hydroxytryptamine receptor 1B (Homo sapiens) (UniProt P28222)", "sequence (P28222 whole entry)": "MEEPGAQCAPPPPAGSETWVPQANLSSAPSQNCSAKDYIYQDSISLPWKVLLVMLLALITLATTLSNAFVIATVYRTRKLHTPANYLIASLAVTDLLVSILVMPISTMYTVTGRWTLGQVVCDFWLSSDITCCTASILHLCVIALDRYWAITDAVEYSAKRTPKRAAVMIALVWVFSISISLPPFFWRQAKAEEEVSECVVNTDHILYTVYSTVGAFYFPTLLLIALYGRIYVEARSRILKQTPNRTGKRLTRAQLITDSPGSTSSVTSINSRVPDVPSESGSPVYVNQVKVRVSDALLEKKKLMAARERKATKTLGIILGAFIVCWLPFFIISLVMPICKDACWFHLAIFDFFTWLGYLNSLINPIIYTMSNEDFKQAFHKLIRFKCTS", "assay": "Selectivity interaction (Panel of kinases, GPCRs, ion channels and transporters (enzymatic assay)) EUB0000266bCl HTR1B"}}}
{"molecule": "O=C(NOC[C@H](O)CO)c1ccc(F)c(F)c1Nc1ccc(I)cc1F", "values": [{"measurement": "% of control", "setting": "[1]", "result": 100, "unit": "%"}]}
{"molecule": "CN(C)CC#Cc1ccc2[nH]c3c(c2c1)-c1nc(N)ncc1CCC3", "values": [{"measurement": "IC50", "setting": "[2]", "result": 290, "unit": "nM"}]}
{"molecule": "CCC(=O)N1CCN(c2ccc(-n3c(=O)ccc4cnc5ccc(-c6cnc7ccccc7c6)cc5c43)cc2C(F)(F)F)CC1", "values": [{"measurement": "% of control", "setting": "[3]", "result": 84, "unit": "%"}]}
{"molecule": "CN(C)C/C=C/C(=O)Nc1ccc(C(=O)N2CCCC(Nc3ncc(Cl)c(-c4c[nH]c5ccccc45)n3)C2)cc1", "note": "(centres undefined)", "values": [{"measurement": "% of control", "setting": "[4]", "result": 85, "unit": "%"}, {"measurement": "% of control", "setting": "[5]", "result": 100, "unit": "%"}]}
{"molecule": "C=CC(=O)Nc1cc(-n2c(=O)ccc3cnc4ccc(-c5ccc(NS(C)(=O)=O)cc5)cc4c32)ccc1C", "values": [{"measurement": "% of control", "setting": "[6]; at 1 µM", "result": 80, "unit": "%"}, {"measurement": "% of control", "setting": "[6]; at 10 µM", "result": 100, "unit": "%"}]}
{"molecule": "N#Cc1cccc(-c2c[nH]c3ncnc(N4CCOCC4)c23)c1", "values": [{"measurement": "% of control", "setting": "[7]", "result": 85, "unit": "%"}]}
{"molecule": "CCn1c(-c2nc3cc(C(=O)N4CCCC(N)C4)ccc3n2C)cc2ccccc21", "note": "(centres undefined)", "values": [{"measurement": "pXC50", "setting": "[8]", "result": "< 4.5", "unit": "M"}]}
